Entries after “also recorded” stand apart in the source; their conditions may differ.
Tested on: CHO cells
Assay: Test of translocation of fluorescence-labeled peptides into CHO cells (FACS and confocal microscopic analysis)
Assay type: cell-based
Details: for contribution of the alanine-substituted amino acid to the intracellular translocation: comprehensive alanine substitution on the basis of KSH1-1
Experimental: Each peptide solution, adjusted to 1 mM, was diluted with a medium to three levels, 100 μM, 50 μM, and 25 μM, and added to cells. Three kinds of cells were used: CHO cells, HeLa cells, and Jurkat cells. After each peptide solution was added, the cells were incubated for 1 hour. After the cells were washed with PBS three times, 100 μL of 0.25% trypsin-1 mM EDTA solution was added, and trypsinization was performed at room temperature for 5 minutes. After 400 μL of PBS (10% FCS) was added to stop the trypsinization, the cells were washed with 1 mL of HBSS three times. After the washing, the cells were suspended in 500 μL of PBS (10% FCS) and subjected to flowcytometry (hereinafter, FACS) analysis using FACS Calibur (Becton Dickinson).
Each peptide was synthesized, fluorescently labeled, purified and dissolved in the same manner as Example 1-2, a test of translocation into CHO cells was performed, and an evaluation was performed by confocal microscopic analysis and FACS. FACS analysis was performed in the same manner as Example 1-3. For the KSH1 peptide and modified PTD sequences, i.e., KSH1-1 to KSH1-9 peptides (SEQ ID NOS:1 to 9 in the sequence listing), fluorescence intensities determined by FACS analysis are shown in FIG. 6. The peptide addition concentrations were 50 μM, 25 μM, 12.5 μM and 6.5 μM.
To determine which amino acids are important to the intracellular translocation, comprehensive alanine substitution was performed on the basis of KSH1-1 to design KSH1-11 (SEQ ID NO:11 in the sequence listing) to KSH1-23 (SEQ ID NO:22 in the sequence listing) and KSH1-35 (SEQ ID NO:32 in the sequence listing) (FIG. 7). Each peptide was synthesized, fluorescently labeled, purified and dissolved in the same manner as Example 1-2, a test of translocation into CHO cells was performed, and an evaluation was performed by confocal microscopic analysis and FACS. FACS analysis was performed in the same manner as Example 1-3. For KSH1 and modified PTD sequences, i.e., KSH11-11 to 23 and KSH1-35, fluorescence intensities determined by FACS analysis are shown in FIG. 8. The peptide addition concentrations were 50 μM, 25 μM, 12.5 μM and 6.5 μM.
(§1) Each peptide was synthesized, fluorescently labeled, purified and dissolved in the same manner as Example 1-2, a test of translocation into CHO cells was performed, and an evaluation was performed by confocal microscopic analysis and FACS analysis. FACS analysis was performed in the same manner as Example 1-3. For KSH1 and modified PTD sequences, i.e., KSH11-24 to 1-26 and KSH1-28 to 1-30, fluorescence intensities determined by FACS analysis are shown in FIG. 10. The peptide addition concentrations were 50 μM, 25 μM, 12.5 μM and 6.5 μM.
as §1, with “KSH1-27, KSH1-33, KSH1-34” for “KSH11-24 to 1-26”, “KSH1-36,” for “KSH1-28 to 1-30,”, “12.” for “10.”
Each peptide was synthesized, fluorescently labeled, purified and dissolved in the same manner as Example 1-2, and an intracellular translocation test in CHO cells was performed by FACS analysis. Used for positive control were a PTD sequence derived from HIV TAT ([…] in the sequence listing) and the KSH1 peptide; used for negative control was a peptide sequence lacking intracellular transferability (SEQ ID NO:57 in the sequence listing).

[1] = 50 μM, 25 μM, 12.5 μM and 6.5 μM

Substance: KSH1-2: KSH1 with proline substituted with alanine (KLWMRWYSATTRRYG; Designed peptide to act as PTD(Protein Transduction Domain))
- intracellular translocation compared with KSH1 (in words) [1]: no influence on the intracellular transferability was observed

Substance: KSH1-3: KSH1 with the 13th arginine substituted with alanine (KLWMRWYSPTTRAYG; Designed peptide to act as PTD(Protein Transduction Domain))
- intracellular translocation compared with KSH1 (in words) [1]: decreased remarkably; also recorded: became observable very little
- concentration at which intracellular translocation was detected (detected only at this concentration): 50 µM

Substance: KSH1-4: modified KSH1 with three tryptophans uniformly arranged on the wheel structure (KLWMRWWSPTTRRYG; Designed peptide to act as PTD(Protein Transduction Domain))
- intracellular translocation compared with KSH1 (in words) [1]: did not change

Substance: KSH1-6: KSH1 with the two tryptophans both substituted with alanine (KLAMRAYSPTTRRYG; Designed peptide to act as PTD(Protein Transduction Domain))
- intracellular translocation compared with KSH1 (in words) [1]: no longer observable at all

Substance: KSH1-11: KSH1-1 with the 1st arginine substituted with alanine (ALWMRWYSPTTRRYG; Designed peptide to act as PTD(Protein Transduction Domain))
- intracellular translocation compared with KSH1-1 (in words) [1]: did not decrease a lot
- contribution of the alanine-substituted amino acid to the intracellular translocation: minor contribution

Substance: KSH1-15: alanine substitution form of KSH1-1 (an arginine substituted) (RLWMAWYSPTTRRYG; Designed peptide to act as PTD(Protein Transduction Domain))
- intracellular translocation compared with KSH1-1 (in words) [1]: decreased

Substance: KSH1-17: KSH1-1 with the 7th tyrosine substituted with alanine (RLWMRWASPTTRRYG; Designed peptide to act as PTD(Protein Transduction Domain))
- intracellular translocation compared with KSH1-1 (in words) [1]: almost no intracellular translocation was observed

Substance: KSH1-19: alanine substitution form of KSH1-1 (RLWMRWYSGTTRRYG; Designed peptide to act as PTD(Protein Transduction Domain))
- contribution of the alanine-substituted amino acid to the intracellular translocation: minor contribution

Substance: KSH1-22: alanine substitution form of KSH1-1 (an arginine substituted) (RLWMRWYSPTTARYG; Designed peptide to act as PTD(Protein Transduction Domain))
- intracellular translocation compared with KSH1-1 (in words) [1]: decreased

Substance: KSH1-23: alanine substitution form of KSH1-1 (RLWMRWYSPTTRRAG; Designed peptide to act as PTD(Protein Transduction Domain))
- contribution of the alanine-substituted amino acid to the intracellular translocation: minor contribution

Substance: KSH1-24: two tryptophans substituted with leucine (RLLMRLYSPTTRRYG; Designed peptide to act as PTD(Protein Transduction Domain))
- intracellular translocation compared with KSH1-1 (in words) [1]: decreased

Substance: KSH1-25: two tryptophans substituted with phenylalanine (RLFMRFYSPTTRRYG; Designed peptide to act as PTD(Protein Transduction Domain))
- intracellular translocation compared with KSH1-1 (in words) [1]: nearly the same as KSH1-1

Substance: KSH1-26: two tryptophans substituted with isoleucine (RLIMRIYSPTTRRYG; Designed peptide to act as PTD(Protein Transduction Domain))
- intracellular translocation compared with KSH1-1 (in words) [1]: nearly the same as KSH1-1

Substance: KSH1-27: serine and threonine all substituted with alanine (RLWMRWYAPAARRYG; Designed peptide to act as PTD(Protein Transduction Domain))
- intracellular translocation compared with KSH1-1 (in words) [1]: decreased slightly
- translocation compared with KSH1-1 (in words) (at low concentrations): nearly the same

Substance: KSH1-29: two tryptophans substituted with valine (RLVMRVYSPTTRRYG; Designed peptide to act as PTD(Protein Transduction Domain))
- intracellular translocation compared with KSH1-1 (in words) [1]: decreased slightly

Substance: KSH1-30: two tryptophans substituted with tyrosine (RLYMRYYSPTTRRYG; Designed peptide to act as PTD(Protein Transduction Domain))
- intracellular translocation compared with KSH1-1 (in words) [1]: good intracellular translocation was exhibited; also recorded: good results

Substance: KSH1-34: 14th tyrosine in the vicinity of the 3rd tryptophan substituted with arginine (RLWMRWYSPTTRARG; Designed peptide to act as PTD(Protein Transduction Domain))
- intracellular translocation compared with KSH1-1 (in words) [1]: decreased considerably

Substance: KSH1-35: alanine substitution form of KSH1-1 (RLWMRWYSPTTRRYA; Designed peptide to act as PTD(Protein Transduction Domain))
- contribution of the alanine-substituted amino acid to the intracellular translocation: minor contribution

Substance: KSH1-36: the reversed-chain peptide of KSH1 (GYRRTTPSYWRMWLR; Designed peptide to act as PTD(Protein Transduction Domain))
- intracellular translocation compared with KSH1 (in words) (at high concentrations): accentuated intracellular translocation
- intracellular translocation compared with KSH1 (in words) (at low concentrations): tended to decrease
